In test [1] the test system is IMQ-mouse model of psoriasis. Kind of test: IMQ induced psoriasis mouse model, PASI scoring. The test is classed as in vivo, mice. As to conditions: daily dosing po, compared to vehicle treatment. The protocol:
Except for the control group, all other groups received a daily topical dose of 60 mg of 5% commercially available IMQ cream on the shaved back for 7 consecutive days. The same amount of Vaseline was applied to the same areas of the animals in the negative control group. Vehicle and DF-6129 were dosed daily (po) for 8 days, from Day −1 to Day 7. Dosing time: 1 hour prior to IMQ application. Psoriasis Area and Severity Index (PASI) Scoring The Psoriasis Area and Severity Index (PASI) scoring system was used to evaluate the severity of skin inflammation of the mouse model. Erythema, scaling, and skin thickness was scored independently from 0-4 as (daily scoring) as below: [table] All statistical analysis were conducted, and the level of significance was set at P<0.05. The group means and standard deviation were calculated for all measurement parameters as study designed. One-way ANOVA comparisons among the groups was performed with software SPSS 16.0.

A further test concerns IL-23. Kind of test: Back skin PCR analysis in IMQ-treated mice, IL-23 mRNA. The class given is in vivo. As to conditions: 10 mg/kg, compared with vehicle treatment alone. The protocol: (§1) Except for the control group, all other groups received a daily topical dose of 60 mg of 5% commercially available IMQ cream on the shaved back for 7 consecutive days. The same amount of Vaseline was applied to the same areas of the animals in the negative control group.
(§2) Vehicle and DF-6129 were dosed daily (po) for 8 days, from Day −1 to Day 7. Dosing time: 1 hour prior to IMQ application.
(§3) Animals were euthanized 4 h post last dosing on day 7 (3 h after applying with imiquimod cream) and back skin was be collected. The skin tissues were divided into two parts. One half was flash frozen and stored at −80° C. for PCR analysis (IL-17A, IL-17F, IL-22 and IL-23), the other half was fixed in 10% formalin for HE staining and scoring.
(§4) All statistical analysis were conducted, and the level of significance was set at P<0.05. The group means and standard deviation were calculated for all measurement parameters as study designed. One-way ANOVA comparisons among the groups was performed with software SPSS 16.0.

The next test relates to IL-22. Kind of test: Back skin PCR analysis in IMQ-treated mice, IL-22 mRNA. As to conditions: 10 mg/kg, compared with vehicle treatment alone. The test is classed as in vivo. On the procedure: as §1, §2, §3, §4
The subject of a further test is MCP-1. Kind of test: PBMC MCP-1 HTRF Assay. As to conditions: LPS 200 ng/mL, 24 hours. The class given is cell-based. The protocol: The cryopreserved PBMC cells were thawed in a 37° C. water bath immediately after taking out from liquid nitrogen storage. A sterile pipette was used to transfer the content to sterile […] centrifuge tube containing […] of complete growth medium (Gibico 1640) and centrifuge at 300×g for 10 min. Supernatant was discarded, and cell pellet was resuspended in 10 mL of complete growth media in a sterile 15 mL tube. The cells were rested for 1 h at 37° C. (1×10^6 cells/mL). The cells were spinned down at 300×g for 10 minutes after 1 h. Supernatant was discard, and cell pellet was resuspended in complete growth medium, the cells number and viability were measured by AO/PI staining. In a 384-well white plate, PBMCs at 25 k cells/well (15 μl per well) were seeded with Gibico 1640 medium. The compound stock was serial diluted into […] by 3-fold dilution. 20 nL DMSO, 20 nL test compounds DMSO stock (serial diluted) were transferred in assay plate by using ECHO550, incubate for 30 min at 37° C., 5% CO2. LPS was diluted by Gibico 1640 medium.add 5 μl per well. The final concentration (200 ng/mL) was incubated for 24 hours at 37° C. with 5% CO2.
For MCP-1 HTRF, 2.5 μl/well MCP-1 donor antibody and 2.5 μl/well MCP-1 acceptor antibody were added into 384 well plate, following by centrifuging at 190×g for 1 min and incubating at room temperature for 2 h. The plate was read on the Envision.
In general terms: In TR-FRET formats the signal depends on donor and acceptor labels being close together.

In a further test the test system is IL-17A. Kind of test: Back skin PCR analysis in IMQ-treated mice, IL-17A mRNA. The test is classed as in vivo. Particulars: 10 mg/kg, compared with vehicle treatment alone. On the procedure:
as §1, §2, §3, §4

Another test deals with T1, BRD4 BD2 (Homo sapiens, UniProt O60885).
T1 construct: BD2 TE; expressed in transfected cells
Kind of test: Target Engagement Intracellular BET BRD Assay (NanoBRET). The test is classed as cell-based. Particulars: read-out: BRD4 BD2 TE IC50. The protocol: 3× Complete Substrate plus Inhibitor Solution in Assay Medium (Opti-MEM® I Reduced Serum Medium, no phenol red, and no serum) was prepared just before measuring BRET. This solution consisted of a 1:166 dilution of NanoBRET™ Nano-Glo® Substrate plus a 1:500 dilution of Extracellular NanoLuc® Inhibitor in Assay Medium. For a 96-well plate, 30 μl of NanoBRET™ Nano-Glo® Substrate, 10 μl of Extracellular NanoLuc® Inhibitor and 4,960 μl of Assay Medium were mixed to produce 5 ml of 3× Complete Substrate plus Inhibitor Solution, followed with gently mixing by inversion 5-10 times in a conical tube. (The final concentration of Extracellular NanoLuc® Inhibitor in the 3× solution was 60 μM, for a working concentration of 20 μM. Use 3× Complete Substrate plus Inhibitor Solution within 2 hours. Discard any remaining solution).
50 μl of 3× Complete Substrate plus Inhibitor Solution were added to each well of the 96-well plate, followed by incubation for 2-3 minutes at room temperature. Donor emission wavelength (e.g., 450 nm) and acceptor emission wavelength (e.g., 610 nm) were measured by using the GloMax® Discover System or other NanoBRET™ Assay-compatible luminometer (it is recommended measuring BRET within 10 minutes after adding NanoBRET™ Nano-Glo™ Substrate plus Extracellular NanoLuc® Inhibitor Solution. However, BRET can be measured for up to 2 hours, but there will be some loss of luminescence signal).
To generate raw BRET ratio values, the acceptor emission value (e.g., 610 nm) was divided by the donor emission value (e.g., 450 nm) for each sample [to correct for background, the BRET ratio was substracted in the absence of tracer (average of no-tracer control samples) from the BRET ratio of each sample]. Raw BRET units were converted to milliBRET units (mBU) by multiplying each raw BRET value by 1,000. NanoBRET™ ratio equation, including optional background correction is shown below:
BRET Ratio=[(Acceptorsample÷Donorsample)−(Acceptorno-tracer control÷Donorno-tracer control)]×1,000.
(In general: Bioluminescence resonance energy transfer reports proximity on the nanometre scale.)

The subject of a further test is IL-17. Kind of test: Serum IL-17 ELISA in IMQ-mouse model of psoriasis. The test is classed as in vivo, mice. As to conditions: compared to vehicle treatment alone, 4 h post last dosing on day 7. On the procedure: Except for the control group, all other groups received a daily topical dose of 60 mg of 5% commercially available IMQ cream on the shaved back for 7 consecutive days. The same amount of Vaseline was applied to the same areas of the animals in the negative control group. Vehicle and DF-6129 were dosed daily (po) for 8 days, from Day −1 to Day 7. Dosing time: 1 hour prior to IMQ application. Animals were euthanized 4 h post last dosing on day 7 (3 h after applying with imiquimod cream). Whole Blood was collected via cardiac puncture from all group animals. Serum samples were separated by centrifugation at 4° C. at 8000 g for 5 minutes, total 70 samples. All serum samples were stored at −80° C. for IL-17 analysis. All statistical analysis were conducted, and the level of significance was set at P<0.05. The group means and standard deviation were calculated for all measurement parameters as study designed. One-way ANOVA comparisons among the groups was performed with software SPSS 16.0.
On the technique in general: An ELISA detects its analyte on a solid surface through an enzyme-linked reagent.

Another test concerns IL-17A, IL17F and IL-22. Particulars: Gilan et al. 2020; cited from earlier work.

Molecules are shown by their SMILES.

We go through two compounds from patent US20240208939A1, “TREATMENT OF AUTOIMMUNE AND INFLAMMATORY DISORDERS WITH INHIBITORS OF BET FAMILY BDII BROMODOMAIN” (POSEIDON INNOVATION 1, INC., priority 2022, published 2024).

What is called IC50 is the concentration that gives 50% inhibition. As for `Cn1ccn(-c2ccc(-c3cc(F)cc(-c4cccc(N5CCN(C(C)(C)C)CC5)c4)c3O)cc2Cl)c1=O` [Example I-1, 1-(3″-(4-(tert-butyl)piperazin-1-yl)-3-chloro-5′-fluoro-2′-hydroxy-[1,1′:3′,1″- terphenyl]-4-yl)-3-methyl-1,3-dihydro-2H-imidazol-2-one], in test [1], the erythema entry is “significant decreases”, the scaling result is “significant decreases”, the skin thickening entry was “significant decreases” and the “total psoriasis (PASI) score” value is listed as “significantly reduced”. For the same compound, the “mRNA levels of IL-23 from the back skin” value in the test on IL-23 was “significantly reduced”. The “mRNA levels of IL-22 from the back skin” value with IL-22 is “significantly reduced”. Besides, half-maximal inhibition in the test with MCP-1 (IC50) was put at 1.51 nM. Further, in the test with IL-17A, the “mRNA levels of IL-17A from the back skin” value is “significantly reduced”. Further, the IC50 at BRD4 BD2 was 0.323 nM. The “serum IL-17 levels” value with IL-17 is “significantly reduced”.
For `CNC(=O)c1cc(C(=O)NC2CC2)cn(Cc2ccccc2)c1=O` [GSK620], the “expression of disease relevant pro-inflammatory genes, including IL-17A, IL17F and IL-22” value with IL-17A, IL17F and IL-22 is given as “reduced the expression”.
